# Measurements published in PMC9274004, “Deciphering the Molecular Interaction Between the Adhesion G Protein-Coupled Receptor ADGRV1 and its PDZ-Containing Regulator PDZD7” (Frontiers in Molecular Biosciences, 2022).
# Where no end group is shown, it is not given here.
# Target: T1, PDZD7 P1P2 G103R (Mus musculus, UniProt E9Q9W7, G103R)
# T1 construct: PDZ2ext (206-313), P1P2 (81-313); GST (followed by TEV site) (N, cleaved yes); made in house; host or cells: E. coli BL21 DE3
# Assay: Fluorescence titration of P1P2 G103R
# Format: binding, murine
# Experimental: Fluorescence titrations were performed on a Jasco V-730 spectrometer using quartz cell 109.004F-QS (Hellma Analytics) with an optical path of 10 mm and with thick side to reduce the inner filter effect. PDZ1ext and P1P2 were prepared in Phosphate Buffer pH 6.6 (50 mM) at 6 and 2 µM respectively, while PDZ2ext was prepared in Tris HCl pH 7.5 (50 mM) at 5 µM. Variations in the quantum yield of fluorescence of tryptophans from the sample were monitored upon progressive addition of buffered ADGRV1pbm peptide. After peptide addition, the sample is homogenized by in-spectrometer magnet agitation for 30 s. The sample is left to rest for an additional 60 s before measurement. Excitation is set at 295 nm and fluorescence was measured at the maximum emission wavelength (346-349 nm) of the unbound form with a 5 nm bandwidth for both. Titration curves were fitted using the following formula: y = Fp∗p0+(Fx-Fp)∗0.5∗(R∗I0+(1-R)∗x + K-((R∗I0+(1-R)∗x + K)^2-4∗R∗(I0-x)∗x)^1/2), where p0 is the initial protein concentration, I0 the peptide stock concentration, R the p0/I0 ratio, x the volume of added peptide in µl, Fp the fluorescence of PDZ constructs, Fx the fluorescence of the complex, and K the Kd. The values of p0, I0 and R are kept constant.
# We characterized the potential effect of the two substitutions on the interaction with ADGRV1pbm using a panel of techniques. […]
# T1 sequence (E9Q9W7 81-313 G103R): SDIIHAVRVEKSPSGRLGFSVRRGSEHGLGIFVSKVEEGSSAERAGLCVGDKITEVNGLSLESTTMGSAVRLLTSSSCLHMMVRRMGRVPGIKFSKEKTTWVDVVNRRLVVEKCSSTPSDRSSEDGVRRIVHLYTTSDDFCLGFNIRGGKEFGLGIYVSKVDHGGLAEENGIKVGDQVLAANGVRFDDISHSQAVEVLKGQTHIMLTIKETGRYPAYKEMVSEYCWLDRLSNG
sequence,measurement,value
VELRRIPIADTHL [ADGRV1pbm],Kd,1900 ± 400 nM
